The source of these data is patent US4965066A, “Intranasal administration of 3,3-disubstituted indolines” (E. I. Du Pont de Nemours and Company, priority 1989, dated 1990).

This series can be described thus: in vivo. The settings on record: rat. Here is the method: Male Lewis rats weighing approximately 300 g were used. […] This dose was administered by gavage. The nasal dose of (1') was administered to rats after surgical isolation of the nasal cavity. The trachea was cannulated to allow free breathing, and a closed tube was inserted anteriorly through the esophagus to block the posterior part of the nasal cavity. The incisive ducts were closed with an adhesive to prevent drainage into the mouth. The dose was administered through the nares with a microliter syringe via polyethylene tubing. […] Serial blood samples (~0.5 ml) were collected into heparinized test tubes after cutting the tip of the tail. […] Aliquots of the acid were injected onto the HPLC. […] Du Pont) attached to a guard column packed with cyano packing. A liter of mobile phase contained […] of 0.1 M acetate buffer at pH 3.5, 480 ml acetontrile, 5 ml tetrahydrofuran, and 0.75 g sodium heptanesulfonate. […] Detection was by ultraviolet (uv) absorbance at 252 nm. The detection limit was 0.12 μg/ml plasma. […] Systemic bioavailability after oral and nasal doses was calculated for each rat as the ratio of AUC^oral or ^nasal /AUC^iv, using the average AUC^iv and correcting for the differences in dose. Values are expressed as percentage (%) of dose.

SMILES strings stand for the structures. A value given as a limit tells only on which side of the number the result lay.

For the compound `O=C1N(c2ccccc2)c2ccccc2C1(Cc1ccncc1)Cc1ccncc1` [1'], the Tmax (usually the time at which the peak concentration occurs) (1 mg/kg) was ≤ 10 min. In addition, for the setting “2 mg/kg”, the “Bioavailability (F)” value is 100 % of Dose. Moreover, the AUC (usually concentration integrated over time) at 3 h by setting is: (4 mg/kg) 1340 ± 140 ng·h/mL; (iv, 2 mg/kg) 1260 ± 90 ng·h/mL; (po, 20 mg/kg) 1150 ± 240 ng·h/mL. Moreover, the bioavailability – broadly, the share of a dose that reaches the circulation, judged against a reference dose that is usually intravenous – runs as follows: (4 mg/kg, Nasal Bioavailability (F)) 53 ± 5.5%; (po, 20 mg/kg, Oral Bioavailability (F)) 9.1 ± 1.9%.
